What follows are molecules tested on A. baumannii (assay: Biofilm inhibition assay (crystal violet, 96-well PVC plate)). Conditions: Acinetobacter baumannii; LB medium, 37° C., 24 hours, crystal violet OD540; read-out: ACTIVITY against A. baumannii: IC50 (biofilm inhibition).
Format: cell-based
Method: Biofilm inhibition assays were performed by taking an overnight culture of bacterial strain and subculturing it at an OD600 of 0.10 into LB medium. The compound being tested was then added at a predetermined concentration and then aliquoted (100 μL) into the wells of a 96-well PVC microtiter plate (Wells not used for samples were filled with 100 μL of de-ionized water). Plates were then wrapped in GLAD Press n' Seal® and incubated under stationary conditions at 37° C. After 24 hours, the media was discarded from the wells and the plates were washed thoroughly with tap water. Plates were then stained with 100 μL of 0.1% solution of crystal violet (CV) and then incubated at an ambient temperature for 30 minutes. Sample plates were then washed with tap water again, and the remaining stain was solubilized with 200 μL of 95% ethanol. Biofilm inhibition was quantitated by measuring the OD540 for each well by transferring 125 μL of the solubilized CV stain into a polystyrene microtiter dish for analysis.

IC50 | Structure (SMILES)
< 50 µM | Nc1ncc(-c2ccc(C#Cc3cc(F)cc(F)c3)cc2)[nH]1
6.54 µM | Nc1ncc(-c2ccc(C#Cc3ccccc3)cc2)[nH]1
40 to 50 µM | COc1ccc(C#Cc2ccccc2-c2cnc(N)[nH]2)c(C)c1
< 50 µM | Nc1ncc(-c2ccccc2C#Cc2cccc(Cl)c2)[nH]1
50 to 75 µM | Nc1ncc(-c2ccccc2C#Cc2ccccc2)[nH]1

Same assay, conditions: Acinetobacter baumannii; at 100 μM; LB medium, 37° C., 24 hours, crystal violet OD540; read-out: ACTIVITY against A. baumannii: % inhibition (biofilm inhibition)

Structure (SMILES) | inhibition at 100 µM
COc1ccccc1C#Cc1cccc(-c2cnc(N)[nH]2)c1 | 34%

Reference: US9975857B2, “Inhibition of bacterial biofilms with imidazole-phenyl derivatives” (North Carolina State University, priority 2008, dated 2018)
